Values of other authors, collected in patent publication US7662360B2, “Conjugates of N-hydroxypropymethacrylamide-methacrylate copolymer with nuclide activation agent and/or anti-cancer compounds” (Psimei Pharmaceuticals PLC, priority 2002, dated 2010).

Conditions: dose BPA 900-1200 mg/kg (30 mg/ml), CuTCPH 200 mg/kg (6 mg/ml), BSH dose not given

| Absolute tumour concentration [µg/g] | Compound |
| --- | --- |
| 16.5 | N[C@@H](Cc1ccc(B(O)O)cc1)C(=O)O [BPA, 4-dihydroxyborylphenylalanine] |
| 6.9 | sodium mnercaptoundecahydrododecaborate [BSH] |
